Laboratory results: paper PMC9516332 (Frontiers in Oncology, 2022)

Experiments:
Assay in all cases: Kinase panel profiling at 1 µmol/L (MSA or IMAP), percentage inhibition
Assay type in all cases: biochemical
[1] = target: panel of 255 wild-type kinases (Homo sapiens, UniProt O96013); details: PAK4; 1 µmol/L single concentration; read-out: %-inhibition, PAK4
[2] = target: panel of 255 wild-type kinases (Homo sapiens, UniProt P12931); details: kinase SRC; 1 µmol/L single concentration; read-out: %-inhibition at 1 µmol/L, SRC
[3] = target: T1, panel of 255 wild-type kinases (Homo sapiens, UniProt P15735); details: kinase PHKG2; 1 µmol/L single concentration; read-out: %-inhibition at 1 µmol/L, PHKG2
T1 sequence (P15735 1-406): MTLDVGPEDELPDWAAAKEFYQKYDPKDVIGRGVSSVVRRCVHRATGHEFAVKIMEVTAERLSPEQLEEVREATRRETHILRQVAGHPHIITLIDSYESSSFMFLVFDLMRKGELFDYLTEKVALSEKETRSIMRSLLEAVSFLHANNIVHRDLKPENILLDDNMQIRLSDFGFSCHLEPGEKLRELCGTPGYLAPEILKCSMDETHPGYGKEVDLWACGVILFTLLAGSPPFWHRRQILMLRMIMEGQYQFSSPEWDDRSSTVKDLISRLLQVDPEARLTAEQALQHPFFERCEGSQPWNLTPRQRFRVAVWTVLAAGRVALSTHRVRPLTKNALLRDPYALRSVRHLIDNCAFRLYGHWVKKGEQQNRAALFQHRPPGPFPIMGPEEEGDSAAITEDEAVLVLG

[4] = target: panel of 255 wild-type kinases (Homo sapiens, UniProt P22607); details: kinase FGFR3; 1 µmol/L single concentration; read-out: %-inhibition at 1 µmol/L, FGFR3
[5] = target: T2, panel of 255 wild-type kinases (Homo sapiens, UniProt P29320); details: kinase EPHA3; 1 µmol/L single concentration; read-out: %-inhibition at 1 µmol/L, EPHA3
T2 sequence (P29320 21-983): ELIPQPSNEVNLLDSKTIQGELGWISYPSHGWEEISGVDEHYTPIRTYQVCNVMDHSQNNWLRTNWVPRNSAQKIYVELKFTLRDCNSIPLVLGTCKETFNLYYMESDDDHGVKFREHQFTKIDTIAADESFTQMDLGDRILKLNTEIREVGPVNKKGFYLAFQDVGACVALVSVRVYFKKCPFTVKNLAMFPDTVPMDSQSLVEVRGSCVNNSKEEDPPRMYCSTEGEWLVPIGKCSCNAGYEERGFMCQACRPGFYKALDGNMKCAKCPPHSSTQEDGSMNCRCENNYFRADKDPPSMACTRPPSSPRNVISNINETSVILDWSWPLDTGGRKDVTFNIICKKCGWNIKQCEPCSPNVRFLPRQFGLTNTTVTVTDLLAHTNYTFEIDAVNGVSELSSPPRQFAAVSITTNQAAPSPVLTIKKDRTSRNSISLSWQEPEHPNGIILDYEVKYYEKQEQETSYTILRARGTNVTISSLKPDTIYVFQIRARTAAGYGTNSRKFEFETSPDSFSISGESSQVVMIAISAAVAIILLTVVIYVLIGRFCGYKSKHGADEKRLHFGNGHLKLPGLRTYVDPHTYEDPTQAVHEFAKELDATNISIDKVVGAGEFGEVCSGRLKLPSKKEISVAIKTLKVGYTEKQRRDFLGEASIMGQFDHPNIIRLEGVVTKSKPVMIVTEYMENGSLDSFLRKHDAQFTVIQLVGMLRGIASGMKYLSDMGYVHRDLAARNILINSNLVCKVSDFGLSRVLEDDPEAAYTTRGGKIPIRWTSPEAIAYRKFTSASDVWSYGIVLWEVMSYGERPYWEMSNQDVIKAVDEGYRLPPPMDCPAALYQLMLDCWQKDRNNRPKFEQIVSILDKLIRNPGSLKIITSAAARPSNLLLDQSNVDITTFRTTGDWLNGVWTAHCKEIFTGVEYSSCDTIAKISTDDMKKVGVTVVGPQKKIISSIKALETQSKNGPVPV

[6] = target: panel of 255 wild-type kinases (Homo sapiens, UniProt P50750); details: CDK9/CycT1 kinase assay; 1 µmol/L single concentration; read-out: %-inhibition CDK9/CycT1
[7] = target: T3, panel of 255 wild-type kinases (Homo sapiens, UniProt Q9HBY8); details: kinase SGK2; 1 µmol/L single concentration; read-out: %-inhibition at 1 µmol/L, SGK2
T3 sequence (Q9HBY8 1-367): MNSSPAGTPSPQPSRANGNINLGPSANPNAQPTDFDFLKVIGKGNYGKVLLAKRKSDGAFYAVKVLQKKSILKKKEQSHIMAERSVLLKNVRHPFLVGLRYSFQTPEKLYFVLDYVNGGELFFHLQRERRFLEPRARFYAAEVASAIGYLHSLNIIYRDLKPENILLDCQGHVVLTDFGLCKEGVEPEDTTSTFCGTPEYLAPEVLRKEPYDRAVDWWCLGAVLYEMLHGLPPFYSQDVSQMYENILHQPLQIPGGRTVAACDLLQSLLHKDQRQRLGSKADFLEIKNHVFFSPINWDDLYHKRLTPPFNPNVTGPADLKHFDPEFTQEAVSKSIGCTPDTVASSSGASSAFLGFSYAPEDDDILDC

[8] = target: T4, panel of 255 wild-type kinases (Homo sapiens, UniProt Q9UQB9); details: AurC kinase assay; 1 µmol/L single concentration; read-out: %-inhibition AurC
T4 sequence (Q9UQB9 1-309): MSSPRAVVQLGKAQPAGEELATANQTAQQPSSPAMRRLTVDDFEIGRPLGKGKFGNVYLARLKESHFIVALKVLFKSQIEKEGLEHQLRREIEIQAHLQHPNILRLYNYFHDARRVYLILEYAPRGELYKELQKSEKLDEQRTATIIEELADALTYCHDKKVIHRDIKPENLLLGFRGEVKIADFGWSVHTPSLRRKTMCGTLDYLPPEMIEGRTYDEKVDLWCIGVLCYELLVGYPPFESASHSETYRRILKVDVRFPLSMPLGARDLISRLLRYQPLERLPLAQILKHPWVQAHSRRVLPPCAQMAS

| Compound | inhibition at 1 µM [1] | inhibition at 1 µM [2] | inhibition at 1 µM [3] | inhibition at 1 µM [4] | inhibition at 1 µM [5] | inhibition at 1 µM [6] | inhibition at 1 µM [7] | inhibition at 1 µM [8] |
| --- | --- | --- | --- | --- | --- | --- | --- | --- |
| CCc1nc(C(N)=O)c(Nc2ccc(N3CCC(N4CCN(C)CC4)CC3)c(OC)c2)nc1NC1CCOCC1 [gilteritinib] | 74% | 89% | 59% | 76% | 30% | 32% | -3.51% | 41% |
| COc1cc2ncnc(Nc3ccc(F)c(Cl)c3)c2cc1NC(=O)/C=C/CN1CCCCC1 [dacomitinib] | -3.66% | 44% | 11% | 26% | 11% | 3.6% | -9% | 0.922% |
| Cn1cc(-c2cc3c(N4CCN(c5ncc([C@@](C)(N)c6ccc(F)cc6)cn5)CC4)ncnn3c2)cn1 [avapritinib] | 8% | 66% | 5.4% | 41% | 22% | 49% | -4.22% | 14% |
| CCn1c(=O)c(-c2cc(NC(=O)Nc3ccccc3)c(F)cc2Br)cc2cnc(NC)cc21 [ripretinib] | 0.34% | 71% | 1.5% | 52% | 88% | 0.112% | -5% | 0.523% |
